{"source": "PubChem BioAssay (NCI)", "test_in_all_cases": "NCI tumour cell line growth inhibition, 48 h", "key": {"M19-MEL melanoma": {"tested_on": "M19-MEL melanoma"}, "KM20L2 colon": {"tested_on": "KM20L2 colon"}, "DLD-1 colon": {"tested_on": "DLD-1 colon"}, "XF 498 CNS": {"tested_on": "XF 498 CNS"}, "RXF-631 renal": {"tested_on": "RXF-631 renal"}, "LXFL 529 NSCLC": {"tested_on": "LXFL 529 NSCLC"}, "SNB-78 CNS": {"tested_on": "SNB-78 CNS"}, "MCF7 breast": {"tested_on": "MCF7 breast"}, "MDA-N": {"tested_on": "MDA-N"}}, "note": "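Briefly, cells in 96-well plates were exposed to five compound concentrations for 48 h, and endpoints were estimated by linear interpolation. GI50: concentration for 50% inhibition of growth. TGI: concentration producing complete growth inhibition.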"}
{"smiles": "O=c1cc(-c2ccccc2)[nH]c2c(Cl)cccc12", "values": [{"measurement": "TGI", "setting": "M19-MEL melanoma", "value": "> 100", "unit": "µM"}, {"measurement": "TGI", "setting": "KM20L2 colon", "value": 36, "unit": "µM"}, {"measurement": "TGI", "setting": "DLD-1 colon", "value": "> 100", "unit": "µM"}, {"measurement": "TGI", "setting": "XF 498 CNS", "value": 96.4, "unit": "µM"}, {"measurement": "TGI", "setting": "RXF-631 renal", "value": "> 100", "unit": "µM"}, {"measurement": "TGI", "setting": "LXFL 529 NSCLC", "value": "> 100", "unit": "µM"}]}
{"smiles": "CC(C)(O)[C@@H]1CC[C@@]2(C)CCC[C@H](O)[C@H]2C1", "values": [{"measurement": "TGI", "setting": "M19-MEL melanoma", "value": "> 100", "unit": "µM"}, {"measurement": "TGI", "setting": "KM20L2 colon", "value": "> 100", "unit": "µM"}, {"measurement": "TGI", "setting": "DLD-1 colon", "value": "> 100", "unit": "µM"}, {"measurement": "TGI", "setting": "XF 498 CNS", "value": "> 100", "unit": "µM"}, {"measurement": "TGI", "setting": "RXF-631 renal", "value": "> 100", "unit": "µM"}, {"measurement": "TGI", "setting": "LXFL 529 NSCLC", "value": "> 100", "unit": "µM"}]}
{"smiles": "Cc1ccc(C(=O)N2c3ccccc3N(C)n3cccc3C2CC(=O)O)cc1", "note": "(configuration not stated)", "values": [{"measurement": "TGI", "setting": "M19-MEL melanoma", "value": "> 100", "unit": "µM"}, {"measurement": "TGI", "setting": "KM20L2 colon", "value": "> 100", "unit": "µM"}, {"measurement": "TGI", "setting": "DLD-1 colon", "value": "> 100", "unit": "µM"}, {"measurement": "TGI", "setting": "XF 498 CNS", "value": "> 100", "unit": "µM"}, {"measurement": "TGI", "setting": "SNB-78 CNS", "value": "> 100", "unit": "µM"}, {"measurement": "TGI", "setting": "LXFL 529 NSCLC", "value": "> 100", "unit": "µM"}]}
{"smiles": "COc1cc(C=O)c(-c2cc3c(cc2C2(C)OCCS2)OCO3)c(OC)c1OC", "note": "(configuration not stated)", "values": [{"measurement": "TGI", "setting": "KM20L2 colon", "value": 9.17, "unit": "µM"}, {"measurement": "TGI", "setting": "DLD-1 colon", "value": 50.7, "unit": "µM"}, {"measurement": "TGI", "setting": "XF 498 CNS", "value": 37.1, "unit": "µM"}, {"measurement": "TGI", "setting": "SNB-78 CNS", "value": "> 239", "unit": "µM"}, {"measurement": "TGI", "setting": "LXFL 529 NSCLC", "value": 54, "unit": "µM"}]}
{"smiles": "CCCCCCCC(=O)OCC1OC(n2cc(F)c(=O)[nH]c2=O)C(NC(=O)OCc2ccccc2)C(O)C1O", "note": "(configuration not stated)", "values": [{"measurement": "TGI", "setting": "M19-MEL melanoma", "value": "> 100", "unit": "µM"}, {"measurement": "TGI", "setting": "KM20L2 colon", "value": "> 100", "unit": "µM"}, {"measurement": "TGI", "setting": "SNB-78 CNS", "value": "> 100", "unit": "µM"}, {"measurement": "TGI", "setting": "LXFL 529 NSCLC", "value": "> 100", "unit": "µM"}]}
{"smiles": "O=C1C2=C(CCCCC2)C2CCCCC12O", "note": "(configuration not stated)", "values": [{"measurement": "TGI", "setting": "M19-MEL melanoma", "value": "> 100", "unit": "µM"}, {"measurement": "TGI", "setting": "KM20L2 colon", "value": "> 100", "unit": "µM"}, {"measurement": "TGI", "setting": "DLD-1 colon", "value": "> 100", "unit": "µM"}, {"measurement": "TGI", "setting": "XF 498 CNS", "value": "> 100", "unit": "µM"}, {"measurement": "TGI", "setting": "SNB-78 CNS", "value": "> 100", "unit": "µM"}, {"measurement": "TGI", "setting": "LXFL 529 NSCLC", "value": "> 100", "unit": "µM"}]}
{"smiles": "CCOC(=O)c1cc2c(cn1)[nH]c1cccc(N)c12", "values": [{"measurement": "TGI", "setting": "M19-MEL melanoma", "value": "> 100", "unit": "µM"}, {"measurement": "TGI", "setting": "DLD-1 colon", "value": "> 100", "unit": "µM"}, {"measurement": "TGI", "setting": "XF 498 CNS", "value": "> 100", "unit": "µM"}, {"measurement": "TGI", "setting": "SNB-78 CNS", "value": "> 100", "unit": "µM"}, {"measurement": "TGI", "setting": "LXFL 529 NSCLC", "value": "> 100", "unit": "µM"}]}
{"smiles": "CCCOC(=O)N[C@H]1CCc2cc(OC)c(OC)c(OC)c2-c2ccc(SC)c(=O)cc21", "values": [{"measurement": "GI50", "setting": "MCF7 breast", "value": "< 0.01", "unit": "µM"}, {"measurement": "TGI", "setting": "MCF7 breast", "value": "> 100", "unit": "µM"}]}
{"smiles": "O=C1C2CC=CCC2C(=O)C12CCc1ccccc12", "note": "(configuration not stated)", "values": [{"measurement": "TGI", "setting": "M19-MEL melanoma", "value": "> 100", "unit": "µM"}, {"measurement": "TGI", "setting": "KM20L2 colon", "value": "> 100", "unit": "µM"}, {"measurement": "TGI", "setting": "DLD-1 colon", "value": "> 100", "unit": "µM"}, {"measurement": "TGI", "setting": "XF 498 CNS", "value": "> 100", "unit": "µM"}, {"measurement": "TGI", "setting": "SNB-78 CNS", "value": "> 100", "unit": "µM"}, {"measurement": "TGI", "setting": "LXFL 529 NSCLC", "value": "> 100", "unit": "µM"}]}
{"smiles": "CN1C(=O)C(=Cc2cn(Cc3ccccc3)c3ccccc23)C(=O)N(C)C1=O", "values": [{"measurement": "GI50", "setting": "MCF7 breast", "value": 21.4, "unit": "µM"}, {"measurement": "TGI", "setting": "MCF7 breast", "value": "> 100", "unit": "µM"}]}
{"smiles": "O=C1NC(=O)C(c2ccc(Cl)cc2)=C1Nc1ccc(Cl)c(C(=O)O)c1", "values": [{"measurement": "GI50", "setting": "MCF7 breast", "value": "> 25", "unit": "µM"}, {"measurement": "TGI", "setting": "MCF7 breast", "value": "> 25", "unit": "µM"}]}
{"smiles": "O=[P+](O)c1cc2ccccc2c2ccccc12", "values": [{"measurement": "TGI", "setting": "M19-MEL melanoma", "value": "> 100", "unit": "µM"}, {"measurement": "TGI", "setting": "KM20L2 colon", "value": "> 100", "unit": "µM"}, {"measurement": "TGI", "setting": "DLD-1 colon", "value": "> 100", "unit": "µM"}, {"measurement": "TGI", "setting": "SNB-78 CNS", "value": "> 100", "unit": "µM"}, {"measurement": "TGI", "setting": "LXFL 529 NSCLC", "value": "> 100", "unit": "µM"}]}
{"smiles": "COc1cc(-c2csc(NC(=O)Nc3cc(C(F)(F)F)cc(C(F)(F)F)c3)n2)cc(OC)c1OC", "values": [{"measurement": "GI50", "setting": "MCF7 breast", "value": 2.41, "unit": "µM"}, {"measurement": "TGI", "setting": "MCF7 breast", "value": 11.8, "unit": "µM"}]}
{"smiles": "CC1(C)CCC[C@]2(C)c3cc(O)ccc3CC[C@@H]12", "values": [{"measurement": "GI50", "setting": "MCF7 breast", "value": 13.3, "unit": "µM"}, {"measurement": "TGI", "setting": "MCF7 breast", "value": 37.1, "unit": "µM"}]}
{"smiles": "C[n+]1c2ccccc2c(Nc2ccc(NS(=O)(=O)CCCCN=C(N)N)cc2)c2ccc(N)cc21", "values": [{"measurement": "GI50", "setting": "MCF7 breast", "value": 0.0429, "unit": "µM"}, {"measurement": "TGI", "setting": "MCF7 breast", "value": "> 81.2", "unit": "µM"}]}
{"smiles": "Clc1ccc(C(c2ccc(Cl)cc2)N2CCNCC2)cc1", "values": [{"measurement": "TGI", "setting": "MDA-N", "value": 3.62, "unit": "µM"}, {"measurement": "TGI", "setting": "MCF7 breast", "value": 3.86, "unit": "µM"}]}
{"smiles": "COc1ccc2nc(NCN3C(=O)c4ccccc4C3=O)sc2c1", "values": [{"measurement": "TGI", "setting": "MDA-N", "value": "> 100", "unit": "µM"}, {"measurement": "TGI", "setting": "MCF7 breast", "value": "> 100", "unit": "µM"}]}
{"smiles": "CN(C(=O)C12C3(C(=O)C(C)(C)C)C4C5(C#N)C3C1(C(=O)C(C)(C)C)C5C42C(=O)C(C)(C)C)C(C)(C)C", "note": "(configuration not stated)", "values": [{"measurement": "TGI", "setting": "M19-MEL melanoma", "value": "> 50", "unit": "µM"}, {"measurement": "TGI", "setting": "KM20L2 colon", "value": "> 50", "unit": "µM"}, {"measurement": "TGI", "setting": "DLD-1 colon", "value": "> 50", "unit": "µM"}, {"measurement": "TGI", "setting": "XF 498 CNS", "value": "> 50", "unit": "µM"}, {"measurement": "TGI", "setting": "SNB-78 CNS", "value": "> 50", "unit": "µM"}, {"measurement": "TGI", "setting": "RXF-631 renal", "value": "> 50", "unit": "µM"}, {"measurement": "TGI", "setting": "LXFL 529 NSCLC", "value": "> 50", "unit": "µM"}]}
